Test results from US12215095B2, “Compounds for the treatment of respiratory diseases” (Tianli Biotech Pty Ltd, priority 2018, dated 2025).
Marks after values point to notes of the source that are not given here.

Key:
casein kinase 1δ = casein kinase 1δ (Homo sapiens (Human), UniProt P48730); test: Kinase inhibition assay (HotSpot assay, Reaction Biology Corp); assay type: biochemical; settings: 10 μM ATP, 10-dose IC50 mode, 3-fold serial dilution starting at 10 μM; for IC50: read-out: CK1δ IC50; for pIC50: casein kinase 1δ
TGF-β-induced IL-11 = test: Human parenchymal fibroblast cell assay: inhibition of TGF-β-induced IL-11 (ELISA); assay type: cell-based; settings: primary human parenchymal fibroblasts, 100 pM TGF-β1, 16-24 hours, 4.00 is assigned to compounds that failed to cause 50% or more inhibition at 100 µM; for IC50: Fibroblast, read-out: pIC50 IL-11 suppression (converted)
Protocol: Primary human parenchymal fibroblast cells (pFbs) were cultured from parenchyma of lung resection specimens and from non-transplanted lungs of donors without chronic respiratory disease. pFbs were passaged in Dulbecco's Modified Eagle's Media (DMEM) containing 10% (v/v) heat-inactivated fetal calf serum (FCS), 15 mM HEPES, 0.2% (v/v) sodium bicarbonate, 2 mM L-glutamine, 1% (v/v) non-essential amino acids, 1% (v/v) sodium pyruvate, 2.5 μg/mL amphotericin, 5 IU/mL penicillin and 50 μg/mL streptomycin.
Prior to experimentation, pFb were incubated in serum-free DMEM containing 0.25% bovine serum albumin (BSA) and insulin-transferrin-selenium-containing supplement (Monomed A; CSL, Parkville, Melbourne, Australia). The cells were incubated with small molecular CK1δelta inhibitors (0.1-10 μM) for 30 min prior to 100 pM TGF-β1 (R&D Systems, Minneapolis, MN) and the incubation continued for 16-24 hours prior to harvest of supernatant for detection of immunoreactive IL-11. Stock solutions were made as 10 mM in 100% DMSO and diluted to the required concentration in medium containing 0.1% DMSO (final concentration).
Supernatants were collected for measurement of IL-11 (R&D DuoSet, DY218) by ELISA following the manufacturers' instructions. Generally, capture antibodies were initially diluted to the recommended concentrations using PBS buffer, and then used to coat the wells of 96-well microplates (Greiner, #655061) by adding 50 μL/well and incubated overnight at room temperature. Next day, solutions were discarded and wells were washed 3 times with wash buffer (PBS containing 0.1% (v/v) Tween-20) prior to the addition of 200 μL of blocking solution (PBS containing 1% (v/v) BSA) for 1 hour to block non-specific sites. Plates were then washed 3 times with wash buffer and 50 μL of samples or standards were then added to wells and incubated for 2 hours at room temperature. After the incubation, plates were washed 3 times with wash buffer and 50 μL of detection antibodies were added to wells and incubated for 2 hours at room temperature. Plates were then washed 3 times before adding streptavidin-conjugated horseradish peroxidase (at the recommended concentrations) for 45 min. Plates were then washed 5 times with wash buffer and 100 μL TMB substrate solution (equal parts A and B, BD Biosciences) was added to each well until sufficient signals emerged. The reactions were inactivated by adding 100 μL sulphuric acid (2M H2SO4). The absorbance was measured at 450 nm using the Multiskan Ascent® plate reader. The absorbance of the cytokine standards was fitted to a logistic equation, allowing the concentrations of cytokine in samples to be determined.
pIC50 values (the negative log of the concentration suppressing IL-11 level by 50%) for inhibition of TGF-β-induced IL-11 were interpolated from the linear regression of log concentration small molecule versus IL-11 level (Table 4 and FIG. 2).

Sequence of casein kinase 1δ (P48730 whole entry): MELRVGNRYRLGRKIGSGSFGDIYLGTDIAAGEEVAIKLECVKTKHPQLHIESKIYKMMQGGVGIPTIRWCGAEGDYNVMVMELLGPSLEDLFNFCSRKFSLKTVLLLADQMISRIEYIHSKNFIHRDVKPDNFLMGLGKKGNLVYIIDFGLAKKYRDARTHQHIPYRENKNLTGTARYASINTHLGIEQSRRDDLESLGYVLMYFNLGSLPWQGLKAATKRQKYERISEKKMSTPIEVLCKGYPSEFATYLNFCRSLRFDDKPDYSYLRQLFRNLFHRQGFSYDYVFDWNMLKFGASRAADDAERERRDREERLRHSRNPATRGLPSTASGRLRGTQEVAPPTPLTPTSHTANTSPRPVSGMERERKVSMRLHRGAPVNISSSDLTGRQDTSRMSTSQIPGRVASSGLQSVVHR

| SMILES | IC50 (casein kinase 1δ) [nM] | pIC50 (casein kinase 1δ) | IC50 (TGF-β-induced IL-11) [nM] | pIC50 IL-11 suppression (TGF-β-induced IL-11) |
| --- | --- | --- | --- | --- |
| FCn1cnc(-c2ccc(F)cc2)c1-c1ccnc(NCCCc2ccccc2)n1 [ZH2-122] | 5.07 | – | – | – |
| C[C@H](Nc1nccc(-c2c(-c3ccc(F)cc3)ncn2C2CCCCC2)n1)C1CCCCC1 [ZH3-90, (S)-4-(1-Cyclohexyl-4-(4-fluorophenyl)-1H-imidazol-5-yl)-N-(1-cyclohexylethyl)pyrimidin-2-amine] | – | 6.57 | > 100000 | – |
| Fc1ccc(-c2ncn(C3CCCCC3)c2-c2ccnc(NCc3ccc(-c4ccccc4)cc3)n2)cc1 [ZH2-66, N-([1,1′-Biphenyl]-4-ylmethyl)-4-(1-cyclohexyl-4-(4-fluorophenyl)-1H-imidazol-5-yl)pyrimidin-2-amine] | – | 5.86 | > 100000 | – |
| CC(C)(F)n1cnc(-c2ccc(F)cc2)c1-c1ccnc(NCC2CCC(F)(F)CC2)n1 [ZH2-62] | – | 7.42 | – | < 4.00* |
| Fc1ccc(-c2ncn(C3CCCCC3)c2-c2ccnc(NCCCc3ccccc3)n2)cc1 [ZH3-98, 4-(1-Cyclohexyl-4-(4-fluorophenyl)-1H-imidazol-5-yl)-N-(3-phenylpropyl)pyrimidin-2-amine] | 2.54 | 8.59 | 2000 | – |
| C[C@@H](Nc1nccc(-c2c(-c3ccc(F)cc3)ncn2C2CCCCC2)n1)C1CCCCC1 [ZH3-94, (R)-4-(1-Cyclohexyl-4-(4-fluorophenyl)-1H-imidazol-5-yl)-N-(1-cyclohexylethyl)pyrimidin-2-amine] | 34.4 | 7.46 | 912 | – |
| Fc1ccc(-c2ncn(C3CCCCC3)c2-c2ccnc(NCc3ccccn3)n2)cc1 [ZH2-130, 4-(1-Cyclohexyl-4-(4-fluorophenyl)-1H-imidazol-5-yl)-N-(pyridin-2-ylmethyl)pyrimidin-2-amine(2-picolyl)] | 1.93 | 8.71 | 724 | – |

The next lines start with results.

| IC50 (casein kinase 1δ) [nM] | pIC50 (casein kinase 1δ) | SMILES | IC50 (TGF-β-induced IL-11) [nM] | pIC50 IL-11 suppression (TGF-β-induced IL-11) |
| --- | --- | --- | --- | --- |
| 7.16 | 8.15 | Fc1ccc(-c2ncn(C3CCCCC3)c2-c2ccnc(NCC3CCCC3)n2)cc1 [ZH2-86, 4-(1-Cyclohexyl-4-(4-fluorophenyl)-1H-imidazol-5-yl)-N-(cyclopentylmethyl)pyrimidin-2-amine] | 1910 | – |
| 12.6 | 7.91 | Fc1ccc(-c2ncn(C3CCCCC3)c2-c2ccnc(NCC3CCCCC3)n2)cc1 [ZH2-98, 4-(1-Cyclohexyl-4-(4-fluorophenyl)-1H-imidazol-5-yl)-N-(cyclohexylmethyl)pyrimidin-2-amine] | 1780 | – |
| 1.7 | 8.77 | Fc1ccc(-c2ncn(C3CCCCC3)c2-c2ccnc(NCC3CCOCC3)n2)cc1 [ZH2-102, 4-(1-Cyclohexyl-4-(4-fluorophenyl)-1H-imidazol-5-yl)-N-((tetrahydro-2H-pyran-4-yl)methyl)pyrimidin-2-amine] | 407 | – |
| 2.97 | 8.53 | Fc1ccc(-c2ncn(C3CCCCC3)c2-c2ccnc(NCC3CCC(F)(F)CC3)n2)cc1 [ZH3-74, 4-(1-Cyclohexyl-4-(4-fluorophenyl)-1H-imidazol-5-yl)-N-((4,4-difluorocyclohexyl)methyl)pyrimidin-2-amine] | 6760 | – |
